In this experiment the test system is Influenza A virus (A/WSN/1933(H1N1)). The experiment in a line: microbe, parasite or virus in culture. The experiment is classed as cell-based. The settings on record: MDCK, 24 h with compound, then 2 h drug-free medium.

For 41 compounds, EC90 results are on record in patent US10532980B2, “N-methyl pyrazoles” (Prosetta Antiviral, Inc., priority 2015, dated 2020).

In general, EC90 refers to the concentration at which the effect reaches the 90% level. In the case of `COc1c(CNC(=O)c2cc(C(C)(C)C)nn2C)cccc1OC(F)(F)F` [Compound 35, 3-(tert-butyl)-N-(2-methoxy-3-(trifluoromethoxy)benzyl)-1-methyl-1H-pyrazole-5-carboxamide], the 90% effect concentration (EC90) is 200 nM.

Take `CCOc1cccc(CNC(=O)c2cc(C(C)(C)C)nn2C)c1OC(F)F` [Compound 37, 3-(tert-butyl)-N-(2-(difluoromethoxy)-3-ethoxybenzyl)-1-methyl-1H-pyrazole-5-carboxamide]: the EC90 was found to be 100 nM. For `Cn1nc(C(C)(C)C)cc1C(=O)NCc1cc(Cl)c2c(c1)OCCCO2` [Compound 45, 3-(tert-butyl)-N-((9-chloro-3,4-dihydro-2H-benzo[b][1,4]dioxepin-7-yl)methyl)-1-methyl-1H-pyrazole-5-carboxamide], the concentration for an effect of 90% (EC90) was found to be 1000 nM. Regarding `COc1c(CNC(=O)c2cc(C3CC3)nn2C)cccc1OCC1CCCC1` [Compound 39, N-(3-(cyclopentylmethoxy)-2-methoxybenzyl)-3-cyclopropyl-1-methyl-1H-pyrazole-5-carboxamide], the 90% effect concentration (EC90) amounted to 100 nM. The result for `Cn1nc(C2CC2)cc1C(=O)NCc1ccc(OCC2CC2)c(Cl)c1` [Compound 14, N-(3-chloro-4-(cyclopropylmethoxy)benzyl)-3-cyclopropyl-1-methyl-1H-pyrazole-5-carboxamide] reads 400 nM; that for `COc1cccc(CNC(=O)c2cc(C3CC3)nn2C)c1C` [Compound 28, 3-cyclopropyl-N-(3-methoxy-2-methylbenzyl)-1-methyl-1H-pyrazole-5-carboxamide], 1500 nM. The result for `CCOc1ccc(CNC(=O)c2cc(C(C)C)nn2C)cc1Br` [Compound 17, N-(3-bromo-4-ethoxybenzyl)-3-isopropyl-1-methyl-1H-pyrazole-5-carboxamide] reads 400 nM. In the case of `Cc1cccc(CNC(=O)c2cc(C3CC3)nn2C)c1C` [Compound 20, 3-cyclopropyl-N-(2,3-dimethylbenzyl)-1-methyl-1H-pyrazole-5-carboxamide] it was 1500 nM. Take `Cc1c(CNC(=O)c2cc(C3CC3)nn2C)cccc1C(F)(F)F` [Compound 22, 3-cyclopropyl-1-methyl-N-(2-methyl-3-(trifluoromethyl)benzyl)-1H-pyrazole-5-carboxamide]: the EC90 stood at 300 nM. For the compound `COc1cccc(CNC(=O)c2cc(C(C)(C)C)nn2C)c1O` [Compound 31, 3-(tert-butyl)-N-(2-hydroxy-3-methoxybenzyl)-1-methyl-1H-pyrazole-5-carboxamide], the EC90 was determined as 1000 nM. In the case of `COc1cccc(CNC(=O)c2cc(C(C)C)nn2C)c1OC` [Compound 32, N-(2,3-dimethoxybenzyl)-3-isopropyl-1-methyl-1H-pyrazole-5-carboxamide] it was 1000 nM; in that of `Cn1nc(C(C)(C)C)cc1C(=O)NCc1cccc(OC(F)(F)F)c1O` [Compound 34, 3-(tert-butyl)-N-(2-hydroxy-3-(trifluoromethoxy)benzyl)-1-methyl-1H-pyrazole-5-carboxamide], 1200 nM. `Cn1nc(C2CC2)cc1C(=O)NCc1cccc(C(F)(F)F)c1F` [Compound 1, 3-cyclopropyl-N-(2-fluoro-3-(trifluoromethyl)benzyl)-1-methyl-1H-pyrazole-5-carboxamide]: the EC90 was found to be 400 nM. As to `COc1cccc(CNC(=O)c2cc(C3CC3)nn2C)c1C(F)(F)F` [Compound 30, 3-cyclopropyl-N-(3-methoxy-2-(trifluoromethyl)benzyl)-1-methyl-1H-pyrazole-5-carboxamide], the EC90 stood at 300 nM.

Take `Cc1cccc(CNC(=O)c2cc(C3CC3)nn2C)c1OC(F)F` [Compound 21, 3-cyclopropyl-N-(2-(difluoromethoxy)-3-methylbenzyl)-1-methyl-1H-pyrazole-5-carboxamide]: the EC90 is 2000 nM.

Regarding `COc1c(CNC(=O)c2cc(C3CC3)nn2C)cccc1OC(F)(F)F` [Compound 36, 3-cyclopropyl-N-(2-methoxy-3-(trifluoromethoxy)benzyl)-1-methyl-1H-pyrazole-5-carboxamide], the EC90 turned out to be 100 nM. The result for `COc1c(Br)cccc1CNC(=O)c1cc(C2CC2)nn1C` [Compound 18, N-(3-bromo-2-methoxybenzyl)-3-cyclopropyl-1-methyl-1H-pyrazole-5-carboxamide] reads 1500 nM. `Cc1ccc(CNC(=O)c2cc(C(C)(C)C)nn2C)cc1Cl` [Compound 11, 3-(tert-butyl)-N-(3-chloro-4-methylbenzyl)-1-methyl-1H-pyrazole-5-carboxamide]: the EC90 is 1500 nM. In the case of `CCCOc1c(Cl)cc(CNC(=O)c2cc(C(C)C)nn2C)cc1OC` [Compound 42, N-(3-chloro-4-propoxy-5-methoxybenzyl)-3-isopropyl-1-methyl-1H-pyrazole-5-carboxamide] it was 200 nM; in that of `Cn1nc(C(C)(C)C)cc1C(=O)NCc1cccc(OC(F)(F)F)c1F` [Compound 7, 3-(tert-butyl)-N-(2-fluoro-3-(trifluoromethoxy)benzyl)-1-methyl-1H-pyrazole-5-carboxamide], 1800 nM. On to `Cn1nc(C2CC2)cc1C(=O)NCc1cccc(OC(F)(F)F)c1F` [Compound 8, 3-cyclopropyl-N-(2-fluoro-3-(trifluoromethoxy)benzyl)-1-methyl-1H-pyrazole-5-carboxamide], for which the EC90 was 1500 nM. Consider `Cn1nc(C2CC2)cc1C(=O)NCc1cccc(C(F)(F)F)c1Cl` [Compound 3, N-(2-chloro-3-(trifluoromethyl)benzyl)-3-cyclopropyl-1-methyl-1H-pyrazole-5-carboxamide], for which the concentration for an effect of 90% (EC90) worked out at 1100 nM.

Consider `CC(C)c1cc(C(=O)NCc2cccc(C(F)(F)F)c2F)n(C)n1` [Compound 2, N-(2 fluoro-3-(trifluoromethyl)benzyl)-3-isopropyl-1-methyl-1H pyrazole-5-carboxamide], for which the EC90 was found to be 100 nM. The result for `CCOc1ccc(CNC(=O)c2cc(C(C)(C)C)nn2C)cc1Br` [Compound 16, N-(3-bromo-4-ethoxybenzyl)-3-(tert-butyl)-1-methyl-1H-pyrazole-5-carboxamide] reads 1000 nM. The result for `COc1ccc(F)c(CNC(=O)c2cc(C(C)(C)C)nn2C)c1OC` [Compound 46, 3-(tert-butyl)-N-(6-fluoro-2,3-dimethoxybenzyl)-1-methyl-1H-pyrazole-5-carboxamide] reads 1000 nM; that for `CCCOc1ccc(CNC(=O)c2cc(C(C)C)nn2C)cc1Cl` [Compound 13, N-(3-chloro-4-propoxybenzyl)-3-isopropyl-1-methyl-1H-pyrazole-5-carboxamide], 400 nM. Turning to `COc1cc(CNC(=O)c2cc(C(C)(C)C)nn2C)ccc1Cl` [Compound 5, 3-(tert-butyl)-N-(4-chloro-3-methoxybenzyl)-1-methyl-1H-pyrazole-5-carboxamide], the EC90 was 1500 nM. As to `COc1ccc(CNC(=O)c2cc(C3CC3)nn2C)cc1C(F)(F)F` [Compound 26, 3-cyclopropyl-N-(4-methoxy-3-(trifluoromethyl)benzyl)-1-methyl-1H-pyrazole-5-carboxamide], the EC90 stood at 800 nM.

As to `CC(C)c1cc(C(=O)NCc2cccc(C(F)(F)F)c2Cl)n(C)n1` [Compound 4, N-(2-chloro-3-(trifluoromethyl)benzyl)-3-isopropyl-1-methyl-1H-pyrazole-5-carboxamide], the EC90 came out at 100 nM.

As for `Cc1cc(CNC(=O)c2cc(C(C)C)nn2C)cc(C)c1OC(F)F` [Compound 40, N-(4-(difluoromethoxy)-3,5-dimethylbenzyl)-3-isopropyl-1-methyl-1H-pyrazole-5-carboxamide], the EC90 came to 400 nM. The result for `CCOc1c(F)cc(CNC(=O)c2cc(C3CC3)nn2C)cc1Cl` [Compound 43, N-(3-chloro-4-ethoxy-5-fluorobenzyl)-3-cyclopropyl-1-methyl-1H-pyrazole-5-carboxamide] reads 400 nM. In the case of `CC(C)c1cc(C(=O)NCc2cccc(OC(F)(F)F)c2F)n(C)n1` [Compound 9, N-(2-fluoro-3-(trifluoromethoxy)benzyl)-3-isopropyl-1-methyl-1H-pyrazole-5-carboxamide] it was 400 nM; in that of `COc1c(CNC(=O)c2cc(C(C)C)nn2C)cccc1C(F)(F)F` [Compound 25, 3-isopropyl-N-(2-methoxy-3-(trifluoromethyl)benzyl)-1-methyl-1H-pyrazole-5-carboxamide], 400 nM. In the case of `Cn1nc(C2CC2)cc1C(=O)NCc1cccc(OCC2CC2)c1F` [Compound 10, 3-cyclopropyl-N-(3-(cyclopropylmethoxy)-2-fluorobenzyl)-1-methyl-1H-pyrazole-5-carboxamide] it was 100 nM; in that of `COc1cc(CNC(=O)c2cc(C(C)(C)C)nn2C)ccc1C` [Compound 27, 3-(tert-butyl)-N-(3-methoxy-4-methylbenzyl)-1-methyl-1H-pyrazole-5-carboxamide], 1500 nM; in that of `COc1cccc(CNC(=O)c2cc(C(C)C)nn2C)c1C` [Compound 29, 3-isopropyl-N-(3-methoxy-2-methylbenzyl)-1-methyl-1H-pyrazole-5-carboxamide], 1500 nM. In the case of `CCOc1cccc(CNC(=O)c2cc(C3CC3)nn2C)c1OC(F)F` [Compound 38, 3-cyclopropyl-N-(2-(difluoromethoxy)-3-ethoxybenzyl)-1-methyl-1H-pyrazole-5-carboxamide], the EC90 was found to be 100 nM. As to `CCCOc1c(CNC(=O)c2cc(C3CC3)nn2C)cccc1OC` [Compound 33, 3-cyclopropyl-N-(3-methoxy-2-propoxybenzyl)-1-methyl-1H-pyrazole-5-carboxamide], the EC90 is 1500 nM.

Take `CCOc1cc(F)c(CNC(=O)c2cc(C3CC3)nn2C)cc1Cl` [Compound 44, N-(5-chloro-4-ethoxy-2-fluorobenzyl)-3-cyclopropyl-1-methyl-1H-pyrazole-5-carboxamide]: the 90% effect concentration (EC90) came out at 400 nM. In the case of `COc1c(CNC(=O)c2cc(C3CC3)nn2C)cccc1C(F)(F)F` [Compound 24, 3-cyclopropyl-N-(2-methoxy-3-(trifluoromethyl)benzyl)-1-methyl-1H-pyrazole-5-carboxamide] it was 200 nM; in that of `COc1cc(CNC(=O)c2cc(C3CC3)nn2C)ccc1Cl` [Compound 6, N-(4-chloro-3-methoxybenzyl)-3-cyclopropyl-1-methyl-1H-pyrazole-5-carboxamide], 1500 nM.
